Earlier results as cited in PubChem BioAssay AID1259409 (Chemical Carcinogenesis Research Information System (CCRIS), 2018).

System: rodent chemically induced tumor inhibition, incidence and multiplicity
Experiment: CCRIS tumor inhibitor studies
Details: for outcome: Carcinogen: AZOXYMETHANE [25843-45-2], 1 WK AFTER LAST AZOXYMETHANE INJECTION (STUDY DURATION: 36 WK), Route [Inhibitor]: DIET, Species: RAT, Strain/Sex: F344/MALE, Dose [Carcinogen]: 20 MG/KG 1X A WK FOR 2 WK

Compound	outcome (Dose [Inhibitor]: 0.01% IN DIET FOR 34 WK, Target Tissue: Type of Lesion: LARGE INTESTINE: ADENOCARCINOMA)	outcome (Dose [Inhibitor]: 0.01% IN DIET FOR 34 WK, Target Tissue: Type of Lesion: LARGE INTESTINE: ADENOMA)	outcome (Dose [Inhibitor]: 0.05% IN DIET FOR 34 WK, Target Tissue: Type of Lesion: LARGE INTESTINE: ADENOCARCINOMA)	outcome (Dose [Inhibitor]: 0.05% IN DIET FOR 34 WK, Target Tissue: Type of Lesion: LARGE INTESTINE: ADENOMA)	tumour outcome (control, treated, inhibition, significance) (Carcinogen: 7,12-DIMETHYLBENZ[A]ANTHRACENE, 57-97-6, Dose [Inhibitor]: 0, 16 NMOL 2/WK 1 HR PRIOR TO EACH PROMOTER DOSE FOR 20 WK (STUDY DURATION: 20 WK), Route [Inhibitor]: DERMAL, Species: MOUSE, Strain/Sex: ICR/FEMALE, Target Tissue: Type of Lesion: SKIN: TUMOR, Dose [Carcinogen]: 0.19 UMOL ONCE, Promoter: 12-0-TETRADECANOYLPHORBOL-13-ACETATE, 16561-29-8)
COc1ccc(-c2cc(=O)c3c(OC)c(OC)c(OC)c(OC)c3o2)cc1OC	67, 55, 18%, not significant	33, 45, -36%	67, 35, 48%, p<0.05	33, 50, -52%	–
O=C(c1ccc(O)cc1O)C(c1coc2cc(O)ccc2c1=O)C(c1ccc(O)cc1)c1ccc(O)cc1 (stereo not given)	–	–	–	–	70%, 60%, 14%, not calculated
